Source: US20260297129A1, “PEPTIDES AS SELECTIVE IL-23 RECEPTOR INHIBITORS” (SANOFI, priority 2023, published 2026)
In brackets after ≈: the same amount, converted by molar mass. Where two headings read alike, the source gives them in different places. Numbered stars: 1 amine (or outer) side, 2 acyl side, 3 side chain; on linkers, the order of the positions; unused ones are H or OH. Bridge positions count the residues as written; N and C are the ends. Square brackets hold non-standard residues; d marks the D form. Peptide text beside a SMILES is read from it. * marks the point of attachment. Lys(Me,(CH2)4NMe(CH2)4CO) = CN(CCCCC(=O)[*:3])CCCCN(C)CCCC[C@H](N[*:1])C(=O)[*:2]; Trp(7-Me) = Cc1cccc2c(C[C@H](N)C(=O)O)c[nH]c12; Trp(1-Me) = Cn1cc(C[C@H](N)C(=O)O)c2ccccc21; NH(2-(3-pyridyl)ethyl) = c1cncc(CCN*)c1; αMeLys(Me2) = CN(C)CCCC[C@](C)(N)C(=O)O; 2Nal = N[C@@H](Cc1ccc2ccccc2c1)C(=O)O; 3Pal = N[C@@H](Cc1cccnc1)C(=O)O; Thp = NC1(C(=O)O)CCOCC1; Me2NCH2CH2 = CN(C)CC*; Aib = CC(C)(N)C(=O)O; Sar = CNCC(=O)O

Assays:
[1] = Solubility of peptide compounds in buffer formulations (Table 5); type: physicochemical; conditions: target 1 mg/ml
Description: Prior to the solubility measurement of a peptide batch, its purity was determined through UHPLC/MS method A.
(§1) For solubility testing the target concentration was 1 mg pure compound/ml. Therefore, solutions from solid samples were prepared in a buffer system at a concentration of 1 mg/mL compound. The solid samples were obtained by drying down aliquots of a freshly prepared dimethyl sulfoxide stock solution using a THERMO SPEEDVAC vacuum centrifuge. The dry down time was 3 hours.
The following buffer systems were applied: • Solubility buffer system A) 50 mM HCl pH 1.2 • Solubility buffer system B) 50 mM phosphate buffer pH 6.5 • Solubility buffer system C) 50 mM phosphate buffer pH 7.4 • UHPLC-UV was performed using analytical method A after 2 hours of gentle agitation from the filtered (0.45 μm filter plates) solutions, which were obtained by 10 mins of centrifugation forced filtration at 1500 RCF (relative centrifugal acceleration).
The solubility was determined by the comparison of the UV peak area of 2 μL-injections of a buffered sample diluted 1:10 with a standard curve of a dimethyl sulfoxide reference sample of known concentration. The different extinction coefficients were taken into account for the calculation.

[2] = Chemical stability (relative purity loss) of peptide compounds in buffer formulations (Table 6); type: physicochemical; conditions: 2° C. and 37° C.
Description: Purity of a peptide batch was determined through UHPLC/MS method A prior to chemical stability measurement.
as §1, with “stability assessment,” for “solubility testing”, “0.5” for “1”, “acetonitrile” for “dimethyl sulfoxide”
The following buffer systems were applied: • Solubility buffer system A): 50 mM HCl pH 1.2+Acetonitrile (3:1). • Solubility buffer system B): 50 mM phosphate buffer pH 6.5+Acetonitrile (3:1). • Solubility buffer system C): 50 mM phosphate buffer pH 7.4+Acetonitrile (3:1). • Prepared solutions were stored for 24 hours at 2° C. and 37° C.
After this time course, the samples were centrifuged for 15 min at 2500 RCF to create a 1:5 dilution of the supernatant. Then 2 μl of the dilution were analyzed with UHPLC-UV applying method A.
The chemical stability was rated through the relative loss of purity calculated by the equation: […]

[3] = tested on: IL-23 induced STAT3 signaling (IL-23 receptor) in HEK-Blue IL-23 cells; experiment: Inhibition of IL-23 induced STAT3 signaling in HEK-Blue IL-23 cells, SEAP reporter (Table 9); type: cell-based; conditions: human IL23 0.25 ng/ml, overnight, read-out: Inhibition of IL-23 induced pSTAT3 (IC50 nM)
Text: HEK-Blue™ IL-23 cells (INVIVOGEN) are designed for the detection of bioactive human (hIL-23) and murine IL-23 (mIL-23) by monitoring the activation of the STAT3 pathway. Binding of IL-23 to its receptor on the surface of HEK-Blue™ IL-23 cells triggers a signaling cascade leading to the activation of STAT3 and the subsequent production of secreted embryonic alkaline phosphatase (SEAP). This can be readily assessed using QUANTI-Blue™ Solution, a SEAP detection reagent.
HEK-Blue™ IL-23 cells were cultured as described by INVIVOGEN.
On the first day of assay 10 μL of the HEK-BLUE IL23 cell suspension (final concentration: 10,000 cells/well) and 10 μl of serially diluted peptides solutions were dispensed into a 384-well assay plate. After pre-incubation of the reaction mixtures at 37° C./5% CO2/95% humidity for 60 minutes, 10 μl of the humanIL23 cytokine (final concentration: 0.25 ng/ml) was added to each well for the STAT3 signaling activation. The plate was incubated overnight at 37° C./5% CO2/95% humidity.
On the second day 20 μl per well of QUANTI-BLUE detection solution (prepared according to the manufacture instruction) was dispensed into a new 384-well plate and followed by the transfer of 5 μl supernatant of the overnight incubated cell/sample mixtures. After incubation of 45 min at room temperature signals were measured with PHERASTAR (BMG) at OD 620-655 nm.
Dose response data were fitted with XLfit.

[4] = Buffer pH 1.1 (head; method: 50 mM HCl pH 1.2), 2 h agitation, read-out: Solubility, Buffer pH 1.1
[5] = aqueous buffer, 50 mM phosphate buffer pH 6.5, 2 h agitation, read-out: Solubility, Buffer pH 6.5
[6] = aqueous buffer, 50 mM phosphate buffer pH 7.4, 2 h agitation, read-out: Solubility, Buffer pH 7.4

solubility at 2 h [1, 4] [µg/mL] | solubility at 2 h [1, 5] [µg/mL] | solubility at 2 h [1, 6] [µg/mL] | degraded at 24 h ([2]; 50 mM phosphate buffer pH 6.5 + acetonitrile (3:1), read-out: Chemical stability (relative purity loss), Buffer pH 6.5) [%] | degraded at 24 h ([2]; 50 mM phosphate buffer pH 7.4 + acetonitrile (3:1), read-out: Chemical stability (relative purity loss), Buffer pH 7.4) [%] | degraded at 24 h ([2]; 50 mm hcl + acetonitrile, Buffer pH 1.1 (head; method: 50 mM HCl pH 1.2 + acetonitrile 3:1), read-out: Chemical stability (relative purity loss), Buffer pH 1.1) [%] | Compound | IC50 [3] [nM]
≥ 1000 | ≥ 890 | 850 (≈ 516 µM) | 0 | 0 | 3.7 | CC(=O)NCCCC[C@@H]1NC(=O)[C@H](Cc2c[nH]c3c(C)cccc23)NC(=O)CCCCN(C)CCCCN(C)CCCC[C@@H](C(=O)N[C@@H](CO)C(=O)N[C@@H](Cc2cccnc2)C(=O)N(C)CC(N)=O)NC(=O)C(C)(C)NC(=O)[C@H](Cc2ccc3ccccc3c2)NC(=O)[C@H](Cc2ccc(OCCN(C)C)cc2)NC(=O)C2(CCOCC2)NC1=O [compound 39] ([Trp(7-Me)]K(Ac)[Thp]Y(Me2NCH2CH2)[2Nal][Aib][Lys(Me,(CH2)4NMe(CH2)4CO)]S[3Pal][Sar]-NH2; lactam N-7) | 1.78
≥ 1360 | ≥ 1130 | ≥ 1120 | – | – | – | CC(=O)NCCCC[C@@H]1NC(=O)[C@H](Cc2c[nH]c3c(C)cccc23)NC(=O)CCCCN(C)CCCCN(C)CCCC[C@@H](C(=O)N[C@@H](CO)C(=O)N[C@@H](Cc2cccnc2)C(=O)N(C)CC(N)=O)NC(=O)[C@](C)(CCCCN(C)C)NC(=O)[C@H](Cc2ccc3ccccc3c2)NC(=O)[C@H](Cc2ccc(OCCN(C)C)cc2)NC(=O)C2(CCOCC2)NC1=O [compound 44] ([Trp(7-Me)]K(Ac)[Thp]Y(Me2NCH2CH2)[2Nal][αMeLys(Me2)][Lys(Me,(CH2)4NMe(CH2)4CO)]S[3Pal][Sar]-NH2; lactam N-7) | 1.19
≥ 1060 | ≥ 1030 | ≥ 1030 | – | – | – | CN(C)CCCC[C@]1(C)NC(=O)[C@H](Cc2ccc3ccccc3c2)NC(=O)[C@H](Cc2ccc(OCCN(C)C)cc2)NC(=O)C2(CCOCC2)NC(=O)[C@H](CCC(N)=O)NC(=O)[C@H](Cc2cn(C)c3ccccc23)NC(=O)CCCCN(C)CCCCN(C)CCCC[C@@H](C(=O)N[C@@H](CO)C(=O)N[C@@H](Cc2cccnc2)C(=O)N(C)CC(N)=O)NC1=O [compound 45] ([Trp(1-Me)]Q[Thp]Y(Me2NCH2CH2)[2Nal][αMeLys(Me2)][Lys(Me,(CH2)4NMe(CH2)4CO)]S[3Pal][Sar]-NH2; lactam N-7) | 7.83
≥ 980 | 850 (≈ 550 µM) | 810 (≈ 524 µM) | – | – | – | CC(=O)NCCCC[C@@H]1NC(=O)[C@H](Cc2c[nH]c3c(C)cccc23)NC(=O)CCCCN(C)CCCCN(C)CCCC[C@@H](C(=O)NCC(=O)NCCc2cccnc2)NC(=O)C2(CCOCC2)NC(=O)[C@H](Cc2ccc3ccccc3c2)NC(=O)[C@H](Cc2ccc(OCCN(C)C)cc2)NC(=O)C2(CCOCC2)NC1=O [compound 48] ([Trp(7-Me)]K(Ac)[Thp]Y(Me2NCH2CH2)[2Nal][Thp][Lys(Me,(CH2)4NMe(CH2)4CO)]G-{NH(2-(3-pyridyl)ethyl)}; lactam N-7) | 10.4
